Values quoted from earlier work as cited in patent US6231888A, “Local delivery of non steroidal anti inflammatory drugs (NSAIDS) to the colon as a treatment for colonic polyps” (Perio Products Ltd., priority 1998, dated 2001).
Each block holds one compound with its values, some of them ahead of it.

What was measured:
[1] = test system: COX-2
[2] = test system: colorectal cancer; settings: chronic use
[3] = test system: colonic biopsies; settings: diclofenac-induced colitis
[4] = test system: HT-29 colon adenocarcinoma cells; settings: HT-29 cells
[5] = test system: SW480 colon carcinoma cells
[6] = test system: colonic polyps; settings: daily dose of 300 mg, taken systemically
[7] = test system: sporadic colorectal adenomas; settings: 300 mg or 150 mg daily for one year; polyps 4-12 mm
[8] = test system: colorectal mucosa; settings: FAP patients
[9] = test system: HT-29 colon adenocarcinoma cell line
[10] = test system: COX-1
[11] = test system: colonic microflora
[12] = test system: sporadic colonic polyps

Structure (SMILES): Cc1cnc(NC(=O)C2=C(O)c3ccccc3S(=O)(=O)N2C)s1 [Meloxicam]
COX-2 inhibition [1]: selective COX-2 inhibitor

Structure (SMILES): CC(=O)Oc1ccccc1C(=O)O [aspirin]
Reduction in the incidence of colorectal cancer [2]: 50-70%

Structure (SMILES): O=C(O)Cc1ccccc1Nc1c(Cl)cccc1Cl [diclofenac]
Apoptotic bodies in colonic biopsies [3]: increased levels of apoptotic bodies

Structure (SMILES): CN1C(C(=O)Nc2ccccn2)=C(O)c2ccccc2S1(=O)=O [piroxicam]
COX-2 inhibition [1]: strong inhibitory effect on COX-2

Time within which plasma concentration exceeds that of sulindac (in vivo, po): four
Structure (SMILES): CSc1ccc(/C=C2/C(C)=C(CC(=O)O)c3cc(F)ccc32)cc1 [sulindac sulfide]
COX-2 inhibition [1]: potent inhibitor of COX-2 | Potency in reducing proliferation and inhibiting the cell cycle vs sulindac [4]: six times more potent than sulindac | Cell cycle inhibition [5]: induced cell cycle inhibition

Reduction product formed by colonic microflora [11]: exclusively to sulindac sulfide | Time of peak plasma concentration (oral tablet): about two
Structure (SMILES): CC1=C(CC(=O)O)c2cc(F)ccc2/C1=C\c1ccc([S+](C)[O-])cc1 (stereo not shown) [sulindac]
Number and size of colonic polyps [6]: significantly decreased | Regression/progression of sporadic colorectal adenomas [7]: induced regressions and prevented the progression of sporadic colorectal adenomas | Colonic mucosal apoptosis [8]: increased levels of colonic mucosal apoptosis | Proliferation [8]: No effects on proliferation | Apoptosis [9]: induction of apoptosis | Cell proliferation or differentiation [9]: no evidence of cell proliferation or differentiation | COX-2 inhibition [1]: weak inhibitor of COX-2 | COX-1 inhibition [10]: mainly exerts an inhibitory effect on COX-1 | Regression of adenomatous polyps [12]: no similar regression of adenomatous polyps
